In patent US6689773B2, “Uracil substituted phenyl sulfamoyl carboxamides” (BASF Aktiengesellschaft, priority 2000, dated 2004):

Assays:
Assay type in all cases: in vivo
[1] = tested on: ABUTH, Velvetleaf, Abutilon theophrasti, Medic.; assay: Postemergence herbicidal evaluation (Example 147); conditions: rating scale 0-9, two to three weeks after treatment
Procedure, shortened: (§1)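 Values are 0-9 visual scores, averaged over repeat tests where available. Seedlings of about two weeks were sprayed with roughly 0.016 to 0.032 kg/ha in 80/20 acetone/water plus 1.0% seed oil, then held in the greenhouse two to three weeks.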

[2] = tested on: ALOMY, Blackgrass, Alopecurus myosuroides; assay: Postemergence herbicidal evaluation (Example 147); conditions: rating scale 0-9, two to three weeks after treatment
Procedure, shortened: as §1

[3] = tested on: AMBEL, Ragweed, Common, Ambrosia artemiisifolia, L.; assay: Postemergence herbicidal evaluation (Example 147); conditions: rating scale 0-9, two to three weeks after treatment
Procedure, shortened: as §1

[4] = tested on: CHEAL, Lambsquarters, Chenopodium album, L. Common; assay: Postemergence herbicidal evaluation (Example 147); conditions: rating scale 0-9, two to three weeks after treatment
Procedure, shortened: as §1

[5] = tested on: DIGSA, Crabgrass, (Hairy) L, Digitaria sanguinalis, (L)Scop; assay: Postemergence herbicidal evaluation (Example 147); conditions: rating scale 0-9, two to three weeks after treatment
Procedure, shortened: as §1

[6] = tested on: ECHCG, Barnyardgrass, Echinochloa crusgalli, (L.)Beau; assay: Postemergence herbicidal evaluation (Example 147); conditions: rating scale 0-9, two to three weeks after treatment
Procedure, shortened: as §1

[7] = tested on: GLXMA, Soybean, Glycine max, (L.) Merr.; assay: Postemergence herbicidal evaluation (Example 147); conditions: rating scale 0-9, two to three weeks after treatment
Procedure, shortened: as §1

[8] = tested on: IPOHE, Morningglory, Ivyleaf, Ipomoea hederacea, (L)Jacq.; assay: Postemergence herbicidal evaluation (Example 147); conditions: rating scale 0-9, two to three weeks after treatment
Procedure, shortened: as §1

[9] = tested on: SETVI, Green foxtail, Setaria viridis, (L.)Beau; assay: Postemergence herbicidal evaluation (Example 147); conditions: rating scale 0-9, two to three weeks after treatment
Procedure, shortened: as §1

[10] = tested on: TRZAW, Winter wheat, Tritium Aestivum, L. (Winter); assay: Postemergence herbicidal evaluation (Example 147); conditions: rating scale 0-9, two to three weeks after treatment
Procedure, shortened: as §1

[11] = tested on: XANST, Cocklebur, Xanthium strumariam; assay: Postemergence herbicidal evaluation (Example 147); conditions: rating scale 0-9, two to three weeks after treatment
Procedure, shortened: as §1

[12] = tested on: ZEAMX, Field corn, Zea mays L.; assay: Postemergence herbicidal evaluation (Example 147); conditions: rating scale 0-9, two to three weeks after treatment
Procedure, shortened: as §1

[13] = tested on: ABUTH, Velvetleaf, Abutilon theophrasti, Medic.; assay: Preemergence herbicidal evaluation (Example 148); conditions: rating scale 0-9, two to four weeks after treatment
Procedure, shortened: (§2)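 Seeds mixed with potting soil and planted in cups, then sprayed preemergence with aqueous acetone solution of test compound at about 0.125 to 0.250 kg per hectare. Kept under greenhouse conditions; visual rating versus untreated control 2–4 weeks after treatment, scoring stand, vigor, malformation, size and chlorosis. Repeat tests averaged.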

[14] = tested on: ALOMY, Blackgrass, Alopecurus myosuroides; assay: Preemergence herbicidal evaluation (Example 148); conditions: rating scale 0-9, two to four weeks after treatment
Procedure, shortened: as §2

[15] = tested on: AMBEL, Ragweed, Common, Ambrosia artemiisifolia, L.; assay: Preemergence herbicidal evaluation (Example 148); conditions: rating scale 0-9, two to four weeks after treatment
Procedure, shortened: as §2

[16] = tested on: CHEAL, Lambsquarters, Chenopodium album, L. Common; assay: Preemergence herbicidal evaluation (Example 148); conditions: rating scale 0-9, two to four weeks after treatment
Procedure, shortened: as §2

[17] = tested on: DIGSA, Crabgrass, (Hairy) L, Digitaria sanguinalis, (L)Scop; assay: Preemergence herbicidal evaluation (Example 148); conditions: rating scale 0-9, two to four weeks after treatment
Procedure, shortened: as §2

[18] = tested on: ECHCG, Barnyardgrass, Echinochloa crusgalli, (L.)Beau; assay: Preemergence herbicidal evaluation (Example 148); conditions: rating scale 0-9, two to four weeks after treatment
Procedure, shortened: as §2

[19] = tested on: GLXMA, Soybean, Glycine max, (L.) Merr.; assay: Preemergence herbicidal evaluation (Example 148); conditions: rating scale 0-9, two to four weeks after treatment
Procedure, shortened: as §2

[20] = tested on: IPOHE, Morningglory, Ivyleaf, Ipomoea hederacea, (L)Jacq.; assay: Preemergence herbicidal evaluation (Example 148); conditions: rating scale 0-9, two to four weeks after treatment
Procedure, shortened: as §2

[21] = tested on: SETVI, Green foxtail, Setaria viridis, (L.)Beau; assay: Preemergence herbicidal evaluation (Example 148); conditions: rating scale 0-9, two to four weeks after treatment
Procedure, shortened: as §2

[22] = tested on: TRZAW, Winter wheat, Tritium Aestivum, L. (Winter); assay: Preemergence herbicidal evaluation (Example 148); conditions: rating scale 0-9, two to four weeks after treatment
Procedure, shortened: as §2

[23] = tested on: XANST, Cocklebur, Xanthium strumariam; assay: Preemergence herbicidal evaluation (Example 148); conditions: rating scale 0-9, two to four weeks after treatment
Procedure, shortened: as §2

[24] = tested on: ZEAMX, Field corn, Zea mays L.; assay: Preemergence herbicidal evaluation (Example 148); conditions: rating scale 0-9, two to four weeks after treatment
Procedure, shortened: as §2

In the case of `Cn1c(C(F)(F)F)cc(=O)n(-c2cc(C(=O)NS(N)(=O)=O)c(Cl)cc2F)c1=O` [Example 58], the “Postemergence herbicidal rating ABUTH” value ([1]; rate 0.016 kg/ha) is reported as 9.0, the “Postemergence herbicidal rating ABUTH” value ([1]; rate 0.032 kg/ha) is reported as 9.0 and the “Postemergence herbicidal rating ALMOY” value ([2]; rate 0.016 kg/ha) is reported as 3.0. For the same compound, the “Postemergence herbicidal rating ALMOY” value ([2]; rate 0.032 kg/ha) was 3.0, the “Postemergence herbicidal rating AMBEL” value ([3]; rate 0.016 kg/ha) was 9.0 and the “Postemergence herbicidal rating AMBEL” value ([3]; rate 0.032 kg/ha) was 9.0. For the same compound, the “Postemergence herbicidal rating CHEAL” value ([4]; rate 0.016 kg/ha) was 8.0, the “Postemergence herbicidal rating CHEAL” value ([4]; rate 0.032 kg/ha) was 9.0 and the “Postemergence herbicidal rating DIGSA” value ([5]; rate 0.016 kg/ha) was 5.0. For the same compound, the “Postemergence herbicidal rating DIGSA” value ([5]; rate 0.032 kg/ha) was 6.0, the “Postemergence herbicidal rating ECHCG” value ([6]; rate 0.016 kg/ha) was 6.0 and the “Postemergence herbicidal rating ECHCG” value ([6]; rate 0.032 kg/ha) was 7.0. For the same compound, the “Postemergence herbicidal rating GLXMA” value ([7]; rate 0.016 kg/ha) was 8.5, the “Postemergence herbicidal rating GLXMA” value ([7]; rate 0.032 kg/ha) was 8.5 and the “Postemergence herbicidal rating IPOHE” value ([8]; rate 0.016 kg/ha) was 9.0. For the same compound, the “Postemergence herbicidal rating IPOHE” value ([8]; rate 0.032 kg/ha) was 9.0, the “Postemergence herbicidal rating SETVI” value ([9]; rate 0.016 kg/ha) was 8.0 and the “Postemergence herbicidal rating SETVI” value ([9]; rate 0.032 kg/ha) was 8.0. The “Postemergence herbicidal rating TRZAW” value ([10]; rate 0.016 kg/ha) was 4.5, the “Postemergence herbicidal rating TRZAW” value ([10]; rate 0.032 kg/ha) was 5.0 and the “Postemergence herbicidal rating XANST” value ([11]; rate 0.016 kg/ha) was 9.0. The “Postemergence herbicidal rating XANST” value ([11]; rate 0.032 kg/ha) was 9.0, the “Postemergence herbicidal rating ZEAMX” value ([12]; rate 0.016 kg/ha) was 8.0 and the “Postemergence herbicidal rating ZEAMX” value ([12]; rate 0.032 kg/ha) was 8.0. For the same compound, the “Preemergence herbicidal rating ABUTH” value ([13]; rate 0.125 kg/ha) was 9.0, the “Preemergence herbicidal rating ABUTH” value ([13]; rate 0.25 kg/ha) was 9.0 and the “Preemergence herbicidal rating ALMOY” value ([14]; rate 0.125 kg/ha) was 0.0. The “Preemergence herbicidal rating ALMOY” value ([14]; rate 0.25 kg/ha) was 0.0, the “Preemergence herbicidal rating AMBEL” value ([15]; rate 0.125 kg/ha) was 9.0 and the “Preemergence herbicidal rating AMBEL” value ([15]; rate 0.25 kg/ha) was 9.0. The “Preemergence herbicidal rating CHEAL” value ([16]; rate 0.125 kg/ha) was 9.0, the “Preemergence herbicidal rating CHEAL” value ([16]; rate 0.25 kg/ha) was 9.0 and the “Preemergence herbicidal rating DIGSA” value ([17]; rate 0.125 kg/ha) was 0.0. The “Preemergence herbicidal rating DIGSA” value ([17]; rate 0.25 kg/ha) was 3.0, the “Preemergence herbicidal rating ECHCG” value ([18]; rate 0.125 kg/ha) was 4.0 and the “Preemergence herbicidal rating ECHCG” value ([18]; rate 0.25 kg/ha) was 6.0. For the same compound, the “Preemergence herbicidal rating GLXMA” value ([19]; rate 0.125 kg/ha) was 9.0, the “Preemergence herbicidal rating GLXMA” value ([19]; rate 0.25 kg/ha) was 9.0 and the “Preemergence herbicidal rating IPOHE” value ([20]; rate 0.125 kg/ha) was 9.0. For the same compound, the “Preemergence herbicidal rating IPOHE” value ([20]; rate 0.25 kg/ha) was 9.0, the “Preemergence herbicidal rating SETVI” value ([21]; rate 0.125 kg/ha) was 2.0 and the “Preemergence herbicidal rating SETVI” value ([21]; rate 0.25 kg/ha) was 6.0. The “Preemergence herbicidal rating TRZAW” value ([22]; rate 0.125 kg/ha) was 0.0, the “Preemergence herbicidal rating TRZAW” value ([22]; rate 0.25 kg/ha) was 3.0 and the “Preemergence herbicidal rating XANST” value ([23]; rate 0.125 kg/ha) was 5.0. The “Preemergence herbicidal rating XANST” value ([23]; rate 0.25 kg/ha) was 8.0, the “Preemergence herbicidal rating ZEAMX” value ([24]; rate 0.125 kg/ha) was 0.0 and the “Preemergence herbicidal rating ZEAMX” value ([24]; rate 0.25 kg/ha) was 1.0.
`C=CCN(C)S(=O)(=O)NC(=O)c1cc(-n2c(=O)cc(C(F)(F)F)n(C)c2=O)c(F)cc1Cl` [Example 59] was tested, and the “Postemergence herbicidal rating ABUTH” value ([1]; rate 0.016 kg/ha) was 9.0, the “Postemergence herbicidal rating ABUTH” value ([1]; rate 0.032 kg/ha) was 9.0 and the “Postemergence herbicidal rating ALMOY” value ([2]; rate 0.016 kg/ha) was 3.0. The “Postemergence herbicidal rating ALMOY” value ([2]; rate 0.032 kg/ha) was 4.0, the “Postemergence herbicidal rating AMBEL” value ([3]; rate 0.016 kg/ha) was 7.0 and the “Postemergence herbicidal rating AMBEL” value ([3]; rate 0.032 kg/ha) was 9.0. The “Postemergence herbicidal rating CHEAL” value ([4]; rate 0.016 kg/ha) was 7.0, the “Postemergence herbicidal rating CHEAL” value ([4]; rate 0.032 kg/ha) was 8.0 and the “Postemergence herbicidal rating DIGSA” value ([5]; rate 0.016 kg/ha) was 4.0. The “Postemergence herbicidal rating DIGSA” value ([5]; rate 0.032 kg/ha) was 5.0, the “Postemergence herbicidal rating ECHCG” value ([6]; rate 0.016 kg/ha) was 6.0 and the “Postemergence herbicidal rating ECHCG” value ([6]; rate 0.032 kg/ha) was 7.0. For the same compound, the “Postemergence herbicidal rating GLXMA” value ([7]; rate 0.016 kg/ha) was 8.0, the “Postemergence herbicidal rating GLXMA” value ([7]; rate 0.032 kg/ha) was 8.5 and the “Postemergence herbicidal rating IPOHE” value ([8]; rate 0.016 kg/ha) was 9.0. The “Postemergence herbicidal rating IPOHE” value ([8]; rate 0.032 kg/ha) was 9.0, the “Postemergence herbicidal rating SETVI” value ([9]; rate 0.016 kg/ha) was 7.0 and the “Postemergence herbicidal rating SETVI” value ([9]; rate 0.032 kg/ha) was 8.0. For the same compound, the “Postemergence herbicidal rating TRZAW” value ([10]; rate 0.016 kg/ha) was 4.0, the “Postemergence herbicidal rating TRZAW” value ([10]; rate 0.032 kg/ha) was 4.5 and the “Postemergence herbicidal rating XANST” value ([11]; rate 0.016 kg/ha) was 9.0. The “Postemergence herbicidal rating XANST” value ([11]; rate 0.032 kg/ha) was 9.0, the “Postemergence herbicidal rating ZEAMX” value ([12]; rate 0.016 kg/ha) was 8.0 and the “Postemergence herbicidal rating ZEAMX” value ([12]; rate 0.032 kg/ha) was 8.0. The “Preemergence herbicidal rating ABUTH” value ([13]; rate 0.125 kg/ha) was 9.0, the “Preemergence herbicidal rating ABUTH” value ([13]; rate 0.25 kg/ha) was 9.0 and the “Preemergence herbicidal rating ALMOY” value ([14]; rate 0.125 kg/ha) was 0.0. For the same compound, the “Preemergence herbicidal rating ALMOY” value ([14]; rate 0.25 kg/ha) was 4.0, the “Preemergence herbicidal rating AMBEL” value ([15]; rate 0.125 kg/ha) was 9.0 and the “Preemergence herbicidal rating AMBEL” value ([15]; rate 0.25 kg/ha) was 9.0. For the same compound, the “Preemergence herbicidal rating CHEAL” value ([16]; rate 0.125 kg/ha) was 9.0, the “Preemergence herbicidal rating CHEAL” value ([16]; rate 0.25 kg/ha) was 9.0 and the “Preemergence herbicidal rating DIGSA” value ([17]; rate 0.125 kg/ha) was 3.0. The “Preemergence herbicidal rating DIGSA” value ([17]; rate 0.25 kg/ha) was 7.0, the “Preemergence herbicidal rating ECHCG” value ([18]; rate 0.125 kg/ha) was 0.0 and the “Preemergence herbicidal rating ECHCG” value ([18]; rate 0.25 kg/ha) was 3.0. The “Preemergence herbicidal rating GLXMA” value ([19]; rate 0.125 kg/ha) was 2.0, the “Preemergence herbicidal rating GLXMA” value ([19]; rate 0.25 kg/ha) was 8.0 and the “Preemergence herbicidal rating IPOHE” value ([20]; rate 0.125 kg/ha) was 9.0. For the same compound, the “Preemergence herbicidal rating IPOHE” value ([20]; rate 0.25 kg/ha) was 9.0, the “Preemergence herbicidal rating SETVI” value ([21]; rate 0.125 kg/ha) was 4.0 and the “Preemergence herbicidal rating SETVI” value ([21]; rate 0.25 kg/ha) was 9.0. For the same compound, the “Preemergence herbicidal rating TRZAW” value ([22]; rate 0.125 kg/ha) was 0.0, the “Preemergence herbicidal rating TRZAW” value ([22]; rate 0.25 kg/ha) was 0.0 and the “Preemergence herbicidal rating XANST” value ([23]; rate 0.125 kg/ha) was 0.0. The “Preemergence herbicidal rating XANST” value ([23]; rate 0.25 kg/ha) was 9.0, the “Preemergence herbicidal rating ZEAMX” value ([24]; rate 0.125 kg/ha) was 0.0 and the “Preemergence herbicidal rating ZEAMX” value ([24]; rate 0.25 kg/ha) was 2.0.
